Measured values published in ChEMBL document CHEMBL1146405, “Dioncophylline A as a growth-retarding agent against the herbivorous insect Spodoptera littoralis: structure-activity relationships” (J Nat Prod, 1997).

Test system: Spodoptera littoralis
Experiment: Insecticidal activity against Spodoptera littoralis larvae assessed per gram of fresh weight of diet administered through artificial diet measured after 6 days
Assay type: functional, organism-based

Compared with `COc1cccc2c(-c3ccc4c(c3O)[C@@H](C)N(C)[C@H](C)C4)c(C)cc(OC)c12`, `COc1cccc2c(-c3ccc4c(c3O)[C@@H](C)N(C(C)=O)[C@H](C)C4)c(C)cc(OC)c12` [N-ACETYLDIONCOPHYLLINE A] is lower in EC50: 377 µg/g for the first, 291 µg/g for the second.

First: COc1c(-c2c(C)cc(OC)c3c(OC)cccc23)ccc2c1[C@@H](C)N(C=O)[C@H](C)C2
Second: COc1cccc2c(-c3ccc4c(c3OC(C)=O)[C@@H](C)N(C=O)[C@H](C)C4)c(C)cc(OC)c12 [8-O-ACETYL-N-FORMYLDIONCOPHYLLINE A]
The EC50 of the first is lower: 171 µg/g for the first, 361 µg/g for the second.

Going from `COc1cccc2c(-c3ccc4c(c3OCc3ccc(Cl)cc3)[C@@H](C)N[C@H](C)C4)c(C)cc(OC)c12` to `COc1cccc2c(-c3ccc4c(c3OCc3ccc(Br)cc3)[C@@H](C)N[C@H](C)C4)c(C)cc(OC)c12`, the EC50 falls from 16.4 µg/g to 15.6 µg/g.

Going from `CCCCOc1c(-c2c(C)cc(OC)c3c(OC)cccc23)ccc2c1[C@@H](C)N(C=O)[C@H](C)C2` [8-O-N-BUTYL-N-FORMYLDIONCOPHYLLINE A] to `COc1cccc2c(-c3ccc4c(c3OC(C)C)[C@@H](C)N(C=O)[C@H](C)C4)c(C)cc(OC)c12` [N-FORMYL-8-O-ISOPROPYLDIONCOPHYLLINE A], the EC50 falls from 182 µg/g to 130 µg/g.

First: COc1cccc2c(-c3cc(Br)c4c(c3O)[C@@H](C)N[C@H](C)C4)c(C)cc(OC)c12 [5-BROMODIONCOPHYLLINE A]
Second: COc1cccc2c(-c3ccc4c(c3O)[C@@H](C)N[C@H](C)C4)c(C)cc(OC)c12 [DIONCOPHYLLINE A]
The EC50 of the first is lower: 193 µg/g for the first, 277 µg/g for the second.

Compared with `COc1cccc2c(-c3ccc4c(c3OC(=O)c3ccccc3)[C@@H](C)N(C=O)[C@H](C)C4)c(C)cc(OC)c12` [8-O-BENZOYL-N-FORMYLDIONCOPHYLLINE A], `COc1cccc2c(-c3ccc4c(c3OCc3ccccc3)[C@@H](C)N(C=O)[C@H](C)C4)c(C)cc(OC)c12` [8-O-BENZYL-N-FORMYLDIONCOPHYLLINE A] is lower in EC50: 132 µg/g for the first, 67.1 µg/g for the second.

Compared with `COc1cccc2c(-c3ccc4c(c3OC(C)C)[C@@H](C)N[C@H](C)C4)c(C)cc(OC)c12` [8-O-ISOPROPYLDIONCOPHYLLINE A], `COc1cccc2c(-c3ccc4c(c3OCc3ccccc3)[C@@H](C)N[C@H](C)C4)c(C)cc(OC)c12` [8-O-BENZYLDIONCOPHYLLINE A] is lower in EC50: 94.1 µg/g for the first, 27.1 µg/g for the second.

Compared with `COc1cccc2c(-c3ccc4c(c3OC(=O)C(C)(C)C)[C@@H](C)N(C=O)[C@H](C)C4)c(C)cc(OC)c12` [N-FORMYL-8-O-PIVALOYLDIONCOPHYLLINE A], `COc1cccc2c(-c3ccc4c(c3O)[C@@H](C)N(C=O)[C@H](C)C4)c(C)cc(OC)c12` [N-FORMYLDIONCOPHYLLINE A] is higher in EC50: 333 µg/g for the first, 454 µg/g for the second.

Going from `COc1cccc2c(-c3ccc4c(c3OCc3ccc([N+](=O)[O-])cc3)[C@@H](C)N[C@H](C)C4)c(C)cc(OC)c12` to `COc1cccc2c(-c3ccc4c(c3OCc3ccc(C(F)(F)F)cc3)[C@@H](C)N[C@H](C)C4)c(C)cc(OC)c12`, the EC50 rises from 25.6 µg/g to 35.1 µg/g.

First: CCCCCCCCCCCC(=O)Oc1c(-c2c(C)cc(OC)c3c(OC)cccc23)ccc2c1[C@@H](C)N(C=O)[C@H](C)C2
Second: COc1cccc2c(-c3ccc4c(c3OC(C)=O)[C@@H](C)N(C(C)=O)[C@H](C)C4)c(C)cc(OC)c12 [N-ACETYL-8-O-ACETYLDIONCOPHYLLINE A]
The EC50 of the first is higher: > 750 µg/g for the first, 331 µg/g for the second.
